The values below are quoted from earlier work in publication PMC4894406, “Results of an abbreviated phase-II study with the Akt Inhibitor MK-2206 in Patients with Advanced Biliary Cancer” (Scientific Reports, 2015).

This data set deals with cholangiocarcinoma cell lines. The settings on record: pre-clinical data; cited from earlier work.

SMILES strings stand for the structures.

With `O=c1cc(N2CCOCC2)oc2c(-c3ccccc3)cccc12` [LY294002], the “effect on CXCL12-induced cholangiocarcinoma cell invasion” value is on record as “attenuated”.

For the molecule `N#CC(=C(/N)Sc1ccccc1N)/C(C#N)=C(/N)Sc1ccccc1N` [UO126], the “effect on CXCL12-induced cholangiocarcinoma cell invasion” value is on record as “attenuated”.
